Laboratory results reported in patent US20100152129A1 (priority 2008, published 2010).

Legend:
Panc-1 cells [1] = experiment: Microarray gene expression analysis; format: cell-based, human; conditions: Panc-1, microarray
Source text: The goal of the microarray analysis was to evaluate putative gene expression signatures associated with the in vitro synergistic effect of the combination therapy of Gemcitabine with […]-00 in Panc-1 cells. The time points (3 hrs, 6 hrs, 12 hrs) were chosen to establish early molecular changes in the transcription profile for probable biomarkers and mechanism of action for the combination therapy. Approximately 20 million cells were lysed in Trizol Reagent (Invitrogen Corp, USA) and passed through a 21-gauge needle for 5-10 times before RNA extraction was performed. Total RNA extraction was performed using the RNeasy Mini kit (Qiagen, USA) according to the manufacturer's protocol. The final total RNA was eluted in nuclease-free water and the concentration/purity was determined by Nanodrop spectrophotometer (Thermo Fisher Scientific, Delaware, USA). cDNA generation and labeling: 20 μg of total RNA was reverse transcribed using amino allyl dUTP and oligo dT, the resulting cDNA was indirectly labeled with Cy3/Cy5 dyes (GE Healthcare, USA) using a fluorescent labeling kit (Promega Biosciences, USA). The concentration and dye incorporation of the labeled products were determined by Nanodrop spectrophotometer (Thermo Fisher Scientific, Delaware, USA). Equal amounts of labeled cDNA were denatured at 95° C. for 5 mins, cooled and microfuged at 13200 rpm for 5 mins before hybridization. Array fabrication and hybridization: 70-mer transcript oligonucleotides representing 36,480 human genes was purchased from Operon Biotechnologies (Germany) and spotted onto aminosilane coated glass slides (ArrayIt, USA) by contact printing using a Omnigrid (OG100) spotter (Genomic Solutions Inc, USA). Post printing, the slides were cross-linked with UV light at […], vacuumed, sealed and stored in the dark. The slides were pre-processed for background reduction using Pronto (Promega Life sciences, USA) pre-hyb kit as per the manufacturer's instructions. Hybridization was carried out in the GeneTAC Hybstation (Genomic Solutions Inc, USA) for 18 hrs. The hybridization protocol is as follows: 6 hrs at 42° C. (with agitation), 6 hrs at 35° C. (with agitation), and 6 hrs at 30° C. (with agitation). Post hybridization, the arrays were washed according to the manufacturer's protocol. The slides were dried by centrifugation at 1600 rpm for 5 mins. Scanning and image analysis: Post drying, the slides were scanned in a laser scanner (Genomic Solutions, USA) for Cy3 and Cy5 detection. The PMT settings were adjusted using the auto-exposure feature of the scanner. The TIFF files thus generated were exported to GeneTAC Integrator software (Genomic Solutions, USA) for image analysis. The resultant CSV file containing the annotated genome and the corresponding ratios were further used for data analysis.

Panc-1 cells [2] = experiment: Propidium iodide-based fluorescence cytotoxicity assay; format: cell-based; conditions: Homo sapiens, PANC-1; single agent, 0.1 nM
Method: The combination of P276-00 and Gemcitabine was screened for its synergistic effect in Panc-1 cells using propidium iodide based fluorescence cytotoxicity assay.
Test System: The Panc-1 cell line was procured from ATCC (American Tissue type Culture Collection), USA. Catalog number: CRL-1469 and the frozen vial was stored in liquid nitrogen container. Propidium iodide dye was procured from Sigma-Aldrich, USA. Catalog number: P-4170-100 mg and it was stored at 2-8° C.
Method: Panc-1 cells were seeded at a density of 2000 cells/well, in a 200 μL in tissue culture grade 96 well plate and allowed to recover for 24 hrs in a humidified 5%±0.2 CO2 incubator at 37° C.±0.5° C. After 24 hrs, 1 μL of 200 X (200 times higher than required concentration is denoted as 200×) compound (dissolved in neat DMSO), as per Table 1 or 2 was added to the wells. The final DMSO concentration was 0.5% in wells. The plate was incubated for 24 hrs in humidified 5%±0.2 CO2 incubator at 37±0.5° C.
After 24 hrs Minimum Essential Medium (MEM) from the Gemcitabine treated wells was removed and washed two times with fresh MEM and followed by addition of 200 μL of fresh MEM per well. 1 μL of 200× (200 times higher than required concentration is denoted as 200×) compound (dissolved in neat DMSO) was then added as per the Table 1 and 2 designs. The final DMSO concentration was 0.5% in wells which also served as the vehicle control for the study. After 72 hrs the plate was removed from CO2 incubator and spent MEM aspirated from the wells and supplemented with fresh MEM. This was followed by addition of 25 μL of propidium iodide (50 μg/ml in medium) per well. The same plate was frozen at −80° C. for 24 hrs and then thawed and allowed to come to room temperature. The fluorescence at a wavelength of 530 nm excitation and 620 nm emission was read.
The percent cytotoxicity was calculated using the following formula

Panc-1 cells [3] = experiment: Protein expression using high content cell imaging system, and efficacy score; format: cell-based; conditions: for Efficacy score: cumulative over proteins of Table 7
[4] = 6 hours post treatment, control 3
[5] = 36 hours post treatment, control 98

Structure (SMILES): Nc1ccn([C@@H]2O[C@H](CO)[C@@H](O)C2(F)F)c(=O)n1 [Gemcitabine, 2′, 2′-difluorodeoxycytidine]
- CDK8 gene expression value (log value of intensities) (Panc-1 cells [1]): −0.03
- DICER1 gene expression value (log value of intensities) (Panc-1 cells [1]): −0.16
- DLG5 gene expression value (log value of intensities) (Panc-1 cells [1]): −0.19
- DNAI1 gene expression value (log value of intensities) (Panc-1 cells [1]): 0.03
- FA38A gene expression value (log value of intensities) (Panc-1 cells [1]): −0.70
- FGF5 gene expression value (log value of intensities) (Panc-1 cells [1]): 0.28
- HELLS gene expression value (log value of intensities) (Panc-1 cells [1]): 0.40
- HIST1H2BO gene expression value (log value of intensities) (Panc-1 cells [1]): −0.71
- ID1 gene expression value (log value of intensities) (Panc-1 cells [1]): −0.60
- MKKS gene expression value (log value of intensities) (Panc-1 cells [1]): −0.02
- PPIL4 gene expression value (log value of intensities) (Panc-1 cells [1]): 0.36
- RRM2 gene expression value (log value of intensities) (Panc-1 cells [1]): 0.69
- SLC19A2 gene expression value (log value of intensities) (Panc-1 cells [1]): 0.37
- SNX7 gene expression value (log value of intensities) (Panc-1 cells [1]): 0.27
- TMPRSS3 gene expression value (log value of intensities) (Panc-1 cells [1]): 0.85
- cytotoxicity at 0.0001 µM (Panc-1 cells [2]): 10%
- PTN protein expression (Panc-1 cells [3]; 6 hours post treatment, control 1): 6 fluorescence units
- GADD45-α protein expression (Panc-1 cells [3]; [4]): 4 fluorescence units
- ID1 protein expression (Panc-1 cells [3]; [4]): 7 fluorescence units
- P27 protein expression (Panc-1 cells [3]; 6 hours post treatment, control 6): 4 fluorescence units
- CDC25B protein expression (Panc-1 cells [3]; 6 hours post treatment, control 7): 8 fluorescence units
- CDKN2A protein expression (Panc-1 cells [3]; 6 hours post treatment, control 8): 60 fluorescence units
- CCND1 protein expression (Panc-1 cells [3]; 6 hours post treatment, control 74): 83 fluorescence units
- GAPDH protein expression (Panc-1 cells [3]; 6 hours post treatment, control 80): 84 fluorescence units
- CASP3 protein expression (Panc-1 cells [3]; 6 hours post treatment, control 147): 115 fluorescence units
- MMP-1 protein expression (Panc-1 cells [3]; 6 hours post treatment, control 501): 448 fluorescence units
- COX15 protein expression (Panc-1 cells [3]; 6 hours post treatment, control 627): 1100 fluorescence units
- COX2 protein expression (Panc-1 cells [3]; 6 hours post treatment, control 635): 462 fluorescence units
- BAX protein expression (Panc-1 cells [3]; 6 hours post treatment, control 819): 892 fluorescence units
- VEGF protein expression (Panc-1 cells [3]; 6 hours post treatment, control 829): 448 fluorescence units
- BCL2 protein expression (Panc-1 cells [3]; 6 hours post treatment, control 830): 630 fluorescence units
- pRB protein expression (Panc-1 cells [3]; 6 hours post treatment, control 1240): 1318 fluorescence units
- Efficacy score (Panc-1 cells [3]; 6 hours): 1.6
- GADD45-α protein expression (Panc-1 cells [3]; 16 hours post treatment, control 13): 70 fluorescence units
- CDC25B protein expression (Panc-1 cells [3]; 16 hours post treatment, control 54): 50 fluorescence units
- CDKN2A protein expression (Panc-1 cells [3]; 16 hours post treatment, control 64): 57 fluorescence units
- P27 protein expression (Panc-1 cells [3]; 16 hours post treatment, control 67): 72 fluorescence units
- PTN protein expression (Panc-1 cells [3]; 16 hours post treatment, control 76): 68 fluorescence units
- ID1 protein expression (Panc-1 cells [3]; 16 hours post treatment, control 77): 62 fluorescence units
- CCND1 protein expression (Panc-1 cells [3]; 16 hours post treatment, control 90): 66 fluorescence units
- GAPDH protein expression (Panc-1 cells [3]; 16 hours post treatment, control 100): 98 fluorescence units
- CASP3 protein expression (Panc-1 cells [3]; 16 hours post treatment, control 202): 570 fluorescence units
- VEGF protein expression (Panc-1 cells [3]; 16 hours post treatment, control 579): 604 fluorescence units
- BCL2 protein expression (Panc-1 cells [3]; 16 hours post treatment, control 644): 693 fluorescence units
- BAX protein expression (Panc-1 cells [3]; 16 hours post treatment, control 711): 926 fluorescence units
- COX15 protein expression (Panc-1 cells [3]; 16 hours post treatment, control 718): 1134 fluorescence units
- MMP-1 protein expression (Panc-1 cells [3]; 16 hours post treatment, control 929): 604 fluorescence units
- COX2 protein expression (Panc-1 cells [3]; 16 hours post treatment, control 1109): 1151 fluorescence units
- pRB protein expression (Panc-1 cells [3]; 16 hours post treatment, control 2583): 1931 fluorescence units
- Efficacy score (Panc-1 cells [3]; 16 hours): 7.6
- GADD45-α protein expression (Panc-1 cells [3]; 36 hours post treatment, control 19): 51 fluorescence units
- COX2 protein expression (Panc-1 cells [3]; 36 hours post treatment, control 86): 55 fluorescence units
- P27 protein expression (Panc-1 cells [3]; 36 hours post treatment, control 96): 67 fluorescence units
- CCND1 protein expression (Panc-1 cells [3]; [5]): 75 fluorescence units
- CDC25B protein expression (Panc-1 cells [3]; [5]): 29 fluorescence units
- GAPDH protein expression (Panc-1 cells [3]; [5]): 59 fluorescence units
- ID1 protein expression (Panc-1 cells [3]; [5]): 26 fluorescence units
- PTN protein expression (Panc-1 cells [3]; 36 hours post treatment, control 100): 94 fluorescence units
- CASP3 protein expression (Panc-1 cells [3]; 36 hours post treatment, control 265): 633 fluorescence units
- BAX protein expression (Panc-1 cells [3]; 36 hours post treatment, control 715): 1783 fluorescence units
- COX15 protein expression (Panc-1 cells [3]; 36 hours post treatment, control 722): 1990 fluorescence units
- VEGF protein expression (Panc-1 cells [3]; 36 hours post treatment, control 1093): 807 fluorescence units
- MMP-1 protein expression (Panc-1 cells [3]; 36 hours post treatment, control 1316): 807 fluorescence units
- BCL2 protein expression (Panc-1 cells [3]; 36 hours post treatment, control 1410): 698 fluorescence units
- CDKN2A protein expression (Panc-1 cells [3]; 36 hours post treatment, control 1441): 1483 fluorescence units
- pRB protein expression (Panc-1 cells [3]; 36 hours post treatment, control 2840): 2188 fluorescence units
- Efficacy score (Panc-1 cells [3]; 36 hours): 7.4
